Assay results taken from the NIST ThermoML archive (doi:10.1021/acs.jced.7b01125).

Assay: xn = mol fraction of the nth substance listed
Conditions: Gas, Buoyancy - hydrostatic balance with magnetic suspension - one sinker

[HH] [hydrogen] + C
Conditions	mass density [kg/m3]
240.07 K, 999 kPa, x2 = 0.9	7.556
240.07 K, 1000 kPa, x2 = 0.4997	4.558
240.07 K, 1999 kPa, x2 = 0.9	15.591
240.07 K, 2000 kPa, x2 = 0.4997	9.174
240.07 K, 3001 kPa, x2 = 0.9	24.162
240.07 K, 3002 kPa, x2 = 0.4997	13.857
240.07 K, 4001 kPa, x2 = 0.9	33.3
240.07 K, 4003 kPa, x2 = 0.4997	18.584
240.07 K, 5000 kPa, x2 = 0.4997	23.326
240.07 K, 5001 kPa, x2 = 0.9	43.067
240.07 K, 6003 kPa, x2 = 0.4997	28.124
240.07 K, 6003 kPa, x2 = 0.9	53.504
240.07 K, 7000 kPa, x2 = 0.4997	32.918
240.07 K, 7005 kPa, x2 = 0.9	64.62
240.07 K, 8003 kPa, x2 = 0.4997	37.747
240.07 K, 9002 kPa, x2 = 0.4997	42.553
240.07 K, 10006 kPa, x2 = 0.4997	47.368
240.07 K, 11006 kPa, x2 = 0.4997	52.137
240.07 K, 11011 kPa, x2 = 0.9499	128.048
240.07 K, 12005 kPa, x2 = 0.4997	56.857
240.07 K, 12014 kPa, x2 = 0.9499	142.433
240.07 K, 13003 kPa, x2 = 0.4997	61.522
240.07 K, 13016 kPa, x2 = 0.9499	155.953
240.07 K, 14011 kPa, x2 = 0.4997	66.173
240.07 K, 14016 kPa, x2 = 0.9499	168.365
240.07 K, 15002 kPa, x2 = 0.4997	70.674
240.07 K, 15021 kPa, x2 = 0.9499	179.661
240.07 K, 16013 kPa, x2 = 0.4997	75.179
240.07 K, 16020 kPa, x2 = 0.9499	189.762
240.07 K, 17008 kPa, x2 = 0.4997	79.535
240.07 K, 17018 kPa, x2 = 0.9	179.188
240.07 K, 17021 kPa, x2 = 0.9499	198.87
240.07 K, 18016 kPa, x2 = 0.4997	83.857
240.07 K, 18016 kPa, x2 = 0.9499	207.026
240.07 K, 18030 kPa, x2 = 0.9	187.542
240.07 K, 19008 kPa, x2 = 0.4997	88.009
240.07 K, 19013 kPa, x2 = 0.9499	214.425
240.07 K, 19032 kPa, x2 = 0.9	195.115
240.07 K, 19589 kPa, x2 = 0.9	199.054
240.07 K, 19703 kPa, x2 = 0.4997	90.858
240.07 K, 19891 kPa, x2 = 0.9499	220.394
240.08 K, 999 kPa, x2 = 0.9499	7.937
240.08 K, 1998 kPa, x2 = 0.9499	16.447
240.08 K, 3000 kPa, x2 = 0.9499	25.62
240.08 K, 3999 kPa, x2 = 0.9499	35.505
240.08 K, 5004 kPa, x2 = 0.9499	46.287
240.08 K, 6000 kPa, x2 = 0.9499	57.87
240.08 K, 7002 kPa, x2 = 0.9499	70.478
240.08 K, 8004 kPa, x2 = 0.9499	84.026
240.08 K, 8008 kPa, x2 = 0.9	76.371
240.08 K, 9003 kPa, x2 = 0.9499	98.317
240.08 K, 9004 kPa, x2 = 0.9	88.565
240.08 K, 10004 kPa, x2 = 0.9	101.131
240.08 K, 10007 kPa, x2 = 0.9499	113.159
240.08 K, 11012 kPa, x2 = 0.9	113.893
240.08 K, 12006 kPa, x2 = 0.9	126.282
240.08 K, 13016 kPa, x2 = 0.9	138.41
240.08 K, 14006 kPa, x2 = 0.9	149.671
240.08 K, 15020 kPa, x2 = 0.9	160.417
240.08 K, 16024 kPa, x2 = 0.9	170.25
250.03 K, 1001 kPa, x2 = 0.4997	4.372
250.03 K, 2000 kPa, x2 = 0.4997	8.784
250.03 K, 2990 kPa, x2 = 0.4997	13.19
250.03 K, 4000 kPa, x2 = 0.4997	17.721
250.03 K, 5000 kPa, x2 = 0.4997	22.235
250.03 K, 7001 kPa, x2 = 0.4997	31.315
250.03 K, 8002 kPa, x2 = 0.4997	35.861
250.04 K, 999 kPa, x2 = 0.9499	7.587
250.04 K, 1999 kPa, x2 = 0.9499	15.652
250.04 K, 3000 kPa, x2 = 0.9	22.884
250.04 K, 3002 kPa, x2 = 0.9499	24.252
250.04 K, 4000 kPa, x2 = 0.9	31.364
250.04 K, 4006 kPa, x2 = 0.9499	33.422
250.04 K, 5002 kPa, x2 = 0.9	40.328
250.04 K, 5005 kPa, x2 = 0.9499	43.167
250.04 K, 5999 kPa, x2 = 0.4997	26.765
250.04 K, 6001 kPa, x2 = 0.9499	53.515
250.04 K, 6004 kPa, x2 = 0.9	49.775
250.04 K, 7002 kPa, x2 = 0.9	59.655
250.04 K, 7002 kPa, x2 = 0.9499	64.575
250.04 K, 8004 kPa, x2 = 0.9	70.009
250.04 K, 9002 kPa, x2 = 0.4997	40.398
250.04 K, 9006 kPa, x2 = 0.9499	88.515
250.04 K, 9011 kPa, x2 = 0.9	80.795
250.04 K, 10001 kPa, x2 = 0.4997	44.91
250.04 K, 10014 kPa, x2 = 0.9	91.789
250.04 K, 11004 kPa, x2 = 0.4997	49.405
250.04 K, 11010 kPa, x2 = 0.9	102.827
250.04 K, 12004 kPa, x2 = 0.4997	53.836
250.04 K, 13005 kPa, x2 = 0.4997	58.27
250.04 K, 14003 kPa, x2 = 0.4997	62.615
250.04 K, 15009 kPa, x2 = 0.4997	66.921
250.04 K, 16007 kPa, x2 = 0.4997	71.14
250.04 K, 17008 kPa, x2 = 0.4997	75.293
250.04 K, 18013 kPa, x2 = 0.4997	79.385
250.04 K, 19258 kPa, x2 = 0.4997	84.34
250.05 K, 1000 kPa, x2 = 0.9	7.23
